Read-outs that look alike come from different tables or passages of the source. Some results are limits rather than exact numbers.

Consider five molecules from patent publication US10065990B2, “Cyclic peptide compound, and preparation method, pharmaceutical composition and use thereof” (HANGZHOU GUANYU BIO-MEDICAL CO., LTD, priority 2013, dated 2018).

Test [1] has as its target T1, HDAC8 (Homo sapiens, UniProt Q9BY41).
T1 sequence (Q9BY41 1-377): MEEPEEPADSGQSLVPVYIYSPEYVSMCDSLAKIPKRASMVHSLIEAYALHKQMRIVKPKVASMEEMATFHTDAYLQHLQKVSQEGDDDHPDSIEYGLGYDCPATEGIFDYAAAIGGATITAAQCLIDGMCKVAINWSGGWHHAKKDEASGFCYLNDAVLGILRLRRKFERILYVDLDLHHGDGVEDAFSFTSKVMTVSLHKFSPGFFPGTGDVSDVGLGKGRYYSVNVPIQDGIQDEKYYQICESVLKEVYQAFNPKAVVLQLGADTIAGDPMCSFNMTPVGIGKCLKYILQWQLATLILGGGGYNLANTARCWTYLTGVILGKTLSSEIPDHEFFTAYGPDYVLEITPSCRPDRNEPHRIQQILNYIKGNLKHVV
Nature of the test: HDAC biochemical activity measurement (fluorescent substrate deacetylation). To be noted: 37° C. 30 minutes.

Test [2] addresses HDAC1 (Homo sapiens, UniProt Q13547). Described as above.
The test system of test [3] is SGC-7901 (human gastric cancer cells). Nature of the test: MTT cancer cell growth inhibition. The format is cell-based. Particulars: Homo sapiens, SGC-7901, 72 h, MTT, 72 hours incubation, SGC-7901 cells; read-out: GI50 SGC-7901. Put shortly:
(§1)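 Cells seeded at 1500/well in DMEM or RPMI 1640 with 10% FBS, incubated overnight, then exposed to compound at 10^−5 to 10^−10 M final in triplicate for 72 h at 37° C, 5% CO2. MTT added for 4 h, formazan dissolved in DMSO, absorbance read at 570 nm; GI50 derived from viability.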

For test [4], the system named is KBM-5 (human chronic myelogenous leukemia). Nature of the test: MTT cancer cell growth inhibition. In kind it is cell-based. Particulars: Homo sapiens, KBM5, 72 h, MTT, 72 hours incubation, KBM-5 cells; read-out: GI50 KBM-5. Put shortly: as §1
Test [5] has as its system MDA-MB-231 (breast cancer cells). The test is described as follows: MTT cancer cell growth inhibition. In kind it is cell-based. To be noted: Homo sapiens, MDA-MB-231, 72 h, read-out: GI50 MDA-MB-231, MTT, 72 hours incubation, MDA-MB-231 cells. Put shortly: as §1
For test [6], the system named is N-87 (human gastric cancer cells). Nature of the test: MTT cancer cell growth inhibition. Particulars: Homo sapiens, 72 h, MTT, 72 hours incubation, N-87 cells; read-out: GI50 N-87. The format is cell-based. In short, it runs like this: as §1
Test [7] has as its system Huh-7 (human hepatoma cells). The test is described as follows: MTT cancer cell growth inhibition. In kind it is cell-based. Particulars: Homo sapiens, Huh-7, 72 h, MTT, 72 hours incubation, Huh-7 cells; read-out: GI50 Huh-7. Put shortly:
as §1

Test [8] has as its system BGC-823 (human gastric cancer cells). The test is described as follows: MTT cancer cell growth inhibition. The format is cell-based. To be noted: Homo sapiens, BGC-823, 72 h, MTT. In short, it runs like this:
as §1

The test system of test [9] is KBM5-T315I (human chronic myelogenous leukemia). The test is described as follows: MTT cancer cell growth inhibition. In kind it is cell-based. Particulars: Homo sapiens, 72 h, MTT, 72 hours incubation, KBM5-T315I cells; read-out: GI50 KBM5-T315I. In short, it runs like this:
as §1

The test system of test [10] is HT1080 (human fibrosarcoma cells). The test is described as follows: MTT cancer cell growth inhibition. In kind it is cell-based. To be noted: Homo sapiens, HT-1080, 72 h, MTT. Put shortly: as §1
Test [11] relates to Hela (human cervical cancer cells). Nature of the test: MTT cancer cell growth inhibition. Particulars: Homo sapiens, HeLa, 72 h, MTT. The format is cell-based. In short, it runs like this:
as §1

Test [12] concerns the target T2, HDAC7 (Homo sapiens, UniProt Q8WUI4).
T2 sequence (Q8WUI4 1-952): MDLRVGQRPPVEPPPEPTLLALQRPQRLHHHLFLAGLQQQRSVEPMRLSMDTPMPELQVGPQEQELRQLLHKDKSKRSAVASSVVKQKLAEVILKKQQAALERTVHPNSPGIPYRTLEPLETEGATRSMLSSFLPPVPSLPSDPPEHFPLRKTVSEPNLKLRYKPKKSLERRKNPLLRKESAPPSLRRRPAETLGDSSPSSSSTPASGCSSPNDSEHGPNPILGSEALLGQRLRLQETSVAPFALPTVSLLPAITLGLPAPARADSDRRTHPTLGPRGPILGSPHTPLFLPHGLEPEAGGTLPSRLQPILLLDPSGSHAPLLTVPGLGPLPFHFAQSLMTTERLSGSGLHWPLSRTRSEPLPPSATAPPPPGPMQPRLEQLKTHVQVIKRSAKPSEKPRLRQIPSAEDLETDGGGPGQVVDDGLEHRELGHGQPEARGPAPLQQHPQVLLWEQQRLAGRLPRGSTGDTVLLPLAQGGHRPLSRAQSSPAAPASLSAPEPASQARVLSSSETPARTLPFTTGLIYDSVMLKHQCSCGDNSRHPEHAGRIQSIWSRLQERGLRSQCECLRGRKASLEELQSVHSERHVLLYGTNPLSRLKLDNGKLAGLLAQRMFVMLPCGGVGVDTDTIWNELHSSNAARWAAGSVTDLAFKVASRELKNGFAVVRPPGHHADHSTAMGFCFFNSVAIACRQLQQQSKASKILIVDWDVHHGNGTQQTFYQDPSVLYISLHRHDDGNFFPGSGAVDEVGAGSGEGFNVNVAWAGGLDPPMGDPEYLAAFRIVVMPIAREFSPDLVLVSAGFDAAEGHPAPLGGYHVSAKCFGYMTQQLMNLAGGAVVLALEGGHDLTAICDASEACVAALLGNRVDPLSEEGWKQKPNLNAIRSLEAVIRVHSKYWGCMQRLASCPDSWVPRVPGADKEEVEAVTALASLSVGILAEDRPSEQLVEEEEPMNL
The test is described as follows: HDAC biochemical activity measurement (fluorescent substrate deacetylation). To be noted: HDAC7; 37° C. 30 minutes.

The target of test [13] is HDAC3 (Homo sapiens, UniProt O15379). The description is as above.
HDAC3, sequence (O15379 whole entry, species assumed): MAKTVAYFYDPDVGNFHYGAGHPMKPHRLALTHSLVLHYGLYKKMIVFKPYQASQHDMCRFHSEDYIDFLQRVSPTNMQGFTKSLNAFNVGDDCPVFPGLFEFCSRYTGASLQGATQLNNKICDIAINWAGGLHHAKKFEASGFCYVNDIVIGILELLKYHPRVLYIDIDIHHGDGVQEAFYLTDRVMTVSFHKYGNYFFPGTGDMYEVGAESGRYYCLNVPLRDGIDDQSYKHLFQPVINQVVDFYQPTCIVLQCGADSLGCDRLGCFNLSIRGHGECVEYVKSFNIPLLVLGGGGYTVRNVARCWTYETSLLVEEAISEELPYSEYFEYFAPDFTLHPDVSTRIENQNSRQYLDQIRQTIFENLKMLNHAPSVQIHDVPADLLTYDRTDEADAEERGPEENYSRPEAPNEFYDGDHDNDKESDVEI
HDAC3, sequence (Q9Y618 395-489 partner limits assumed, species assumed): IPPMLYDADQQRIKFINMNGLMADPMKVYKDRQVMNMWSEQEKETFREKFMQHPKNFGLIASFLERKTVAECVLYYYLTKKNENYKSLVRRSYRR
Setting [14] is: HDAC1, 37° C. 30 minutes, read-out: IC50 HDAC1.
Setting [15] is: Table 2, read-out: IC50 HDAC1, a (compounds of the present invention).
[16] abbreviates: BGC-823 cells, 72 hours incubation, read-out: GI50 BG.
[17] abbreviates: 72 hours, present invention, read-out: GI50 BGC823, a.
[18] abbreviates: HT1080 cells, 72 hours incubation, read-out: GI50 HT1.
Where [19] appears, read: 72 hours, present invention, read-out: GI50 HT1080, a.
Where [20] appears, read: Hela cells, 72 hours incubation, read-out: GI50 Hela.
Where [21] appears, read: 72 hours, present invention, read-out: GI50 Hela, a.
Where [22] appears, read: read-out: IC50 HDAC3, HDAC3, 37° C. 30 minutes.
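Throughout, for IC50 HDAC1, D (non-substituent): fluorogenic acetyl-lysine substrate (20 µM) deacetylated by HDAC1, then developer releases fluorophore read at 360 nm excitation and 460 nm emission, inhibitor incubated 30 min at 37 °C.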
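Throughout, for IC50 HDAC1, a (compounds of the present invention): fluorogenic acetyl-lysine substrate (20 µM) deacetylated by HDAC1, then developer releases fluorophore read at 360 nm excitation and 460 nm emission, inhibitor incubated 30 min at 37 °C.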
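Throughout, for IC50 HDAC1: fluorogenic acetyl-lysine substrate (20 µM) deacetylated by HDAC1, then developer releases fluorophore read at 360 nm excitation and 460 nm emission, inhibitor incubated 30 min at 37 °C.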
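Throughout, for IC50 HDAC7: fluorogenic deacetylation assay using acetyl-lysine substrate at 20 µM, enzyme and compound incubated 30 min at 37 °C, then developer added, fluorescence read at 360/460 nm.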

HDAC1, sequence (Q13547 whole entry, species assumed): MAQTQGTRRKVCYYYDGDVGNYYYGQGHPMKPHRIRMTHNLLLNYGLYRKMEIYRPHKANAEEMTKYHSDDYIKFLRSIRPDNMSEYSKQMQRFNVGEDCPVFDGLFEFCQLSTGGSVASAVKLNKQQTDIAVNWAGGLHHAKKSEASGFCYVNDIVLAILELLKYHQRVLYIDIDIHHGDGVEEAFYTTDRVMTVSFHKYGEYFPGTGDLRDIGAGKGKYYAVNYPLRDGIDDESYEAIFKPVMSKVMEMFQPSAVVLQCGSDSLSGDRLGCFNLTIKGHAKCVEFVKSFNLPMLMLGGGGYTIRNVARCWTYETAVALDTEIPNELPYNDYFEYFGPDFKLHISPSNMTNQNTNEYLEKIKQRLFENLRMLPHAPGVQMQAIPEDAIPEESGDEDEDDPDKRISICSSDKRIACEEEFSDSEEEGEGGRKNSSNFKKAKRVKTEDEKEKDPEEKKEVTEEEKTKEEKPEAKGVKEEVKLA

Usually IC50 stands for the point on the concentration scale where inhibition reaches its midpoint. For orientation: GI50 means the concentration at which growth is held to half of that of the control. In the case of `C/C=C1\NC(=O)c2nc(ccc2C)CNC(=O)C[C@@H](/C=C/CCSC(=O)CCCCCCC)OC(=O)[C@H](C(C)C)NC1=O` [Compound 243], the IC50 was 129 nM in test [1], 87 nM in test [2] (setting [14]), under 100 nM in [2] (setting [15]) and 48 nM in test [13] (setting [22]). The GI50 in test [3] stood at 25 nM; in test [4] it was 93 nM; in [5], 93 nM; in [6], 23 nM; in test [7], 53 nM; in test [8] (setting [16]), 860 nM. For the same molecule, the GI50 in test [8] (setting [17]) worked out at 860 nM; in test [9], 45 nM; in [10] (setting [18]), 840 nM; in test [10] (setting [19]), 840 nM; in test [11] (setting [20]), 230 nM; in test [11] (setting [21]), 230 nM. For the same molecule, in test [12], the “IC50 HDAC7” value is on record as “no activity”.
Turning to `C/C=C1\NC(=O)c2nc(ccc2SC)CNC(=O)C[C@@H](/C=C/CCSC(=O)CCCCCCC)OC(=O)[C@H](C(C)C)NC1=O` [Compound 147], the IC50 in [1] was determined as 28 nM; in [2] (setting [14]), 61 nM; in test [13] it was 51 nM. The GI50 in test [3] was 45 nM; in test [4], 23 nM; in [5], 78 nM; in test [6] it was 83 nM; in test [7], 57 nM; in test [8] (setting [16]), 50 nM. Also, the GI50 in [9] amounted to 26 nM; in test [10] (setting [18]) it was 80 nM; in [11] (setting [20]) it was 50 nM. The “IC50 HDAC7” value in test [12] is recorded as “no activity”.
Turning to `C/C=C1\NC(=O)c2cccc(n2)CNC(=O)C[C@@H](/C=C/CCSC(=O)CCCCCCC)OC(=O)[C@H](C(C)(C)C)NC1=O` [Compound 237], the IC50 in [1] is 43 nM; in test [2] (setting [14]) it was 72 nM; in test [2] (setting [15]), under 80 nM; in test [13] (setting [22]) it was 35 nM. Besides, the GI50 amounted to 33 nM in test [3]; 49 nM in test [4]; 12 nM in test [5]; 58 nM in test [6]; 49 nM in [7]; 170 nM in test [8] (setting [16]). Besides, the GI50 in test [8] (setting [17]) stood at 170 nM; in [9] it was 87 nM; in [10] (setting [18]) it was 990 nM; in [10] (setting [19]), 990 nM; in [11] (setting [20]) it was 880 nM; in [11] (setting [21]), 880 nM. In addition, the “IC50 HDAC7” value in test [12] is listed as “no activity”.
With `C/C=C1\NC(=O)c2nc(ccc2SC)CNC(=O)C[C@@H](/C=C/CCSC(=O)CCCCC)OC(=O)[C@H](C(C)C)NC1=O` [Compound 153], the IC50 was 28 nM in test [1], 72 nM in test [2] (setting [14]) and 36 nM in [13]. Besides, the GI50 in test [3] was 83 nM; in test [4], 28 nM; in [5], 57 nM; in [6] it was 28 nM; in test [7], 75 nM; in test [8] (setting [16]) it was 20 nM. For the same molecule, the GI50 is 31 nM in [9], 80 nM in [10] (setting [18]) and 50 nM in test [11] (setting [20]). Also, the “IC50 HDAC7” value in test [12] is “no activity”.
As for `C/C=C1\NC(=O)c2cccc(n2)CNC(=O)C[C@@H](/C=C/CCSC(C)=O)OC(=O)[C@H](CCCCNC(=O)OCC2c3ccccc3-c3ccccc32)NC1=O` [Compound 16], the IC50 came out at 61 nM in [1]; 181 nM in [2] (setting [14]); 181 nM in test [2] (Table 3, read-out: IC50 HDAC1, D (non-substituent)); 49 nM in test [13] (setting [22]). Also, the 50% growth inhibitory concentration (GI50) in test [3] is 51 nM; in [4], 82 nM; in test [5], 93 nM; in [6] it was 27 nM; in test [7] it was 43 nM; in test [8] (72 hours incubation, read-out: GI50 BG) it was 2100 nM. Besides, the GI50 in test [9] was 19 nM; in [10] (72 hours incubation, read-out: GI50 HT1), 1300 nM; in [11] (72 hours incubation, read-out: GI50 Hela), 21000 nM. Moreover, the “IC50 HDAC7” value in test [12] is given as “no activity”.
